Assay results from BindingDB's records for doi:10.1016/s0960-894x(02)00004-5 (Keio University, 2002).

Legend:
[1] = biological target: alpha-L-fucosidase (Bos taurus); assay: The compound was tested for the inhibitory activity against alpha-L-Fucosidase in bovine kidney
[2] = biological target: alpha-L-fucosidase (Bos taurus); assay: as above; remark: listed apart in the source

CC1CC(O)(CN)C(O)C(O)C1O (stereo not drawn) [1-Aminomethyl-5-methyl-cyclohexane-1,2,3,4-tetraol]
Ki [1]: 2.8 µM | Ki [2]: 3 µM

CC1=CC(N)C(O)C(O)C1O (stereo not drawn) [6-Amino-4-methyl-cyclohex-4-ene-1,2,3-triol]
Ki [1]: 45 µM
